Assay results: patent US10947196B2, “Beta adrenergic agonist and methods of using the same” (CURASEN THERAPEUTICS, INC., priority 2019, dated 2021)
Where two headings read alike, the source gives them in different places.

Columns and labels:
β1-adrenergic receptor = β1-adrenergic receptor (Homo sapiens (Human), UniProt P08588); experiment: cAMP Gs dynamic HTRF assay, β1 expressing CHO cells; format: cell-based; details: B1-AR
Description: (§1) cAMP homogeneous time-resolved fluorescence (HTRF). Compound efficacy was determined using the cAMP Gs dynamic HTRF assay (Cisbio, catalog #62AM4PEC) largely following the manufacturer's instructions, also detailed below.
(§2) Compound preparation. […] Standard serial dilution curves were 10-point, 5-fold dilutions starting from a highest concentration of 10 μM. […] Assay plates were centrifuged at 500×g for 10 seconds. Compounds and IBMX were prepared at 2× final dose to compensate for addition of cells.
(§3) Cell preparation. 1× stimulation buffer, washing PBS (Dulbecco's phosphate-buffered saline, −Mg −Ca; Caisson Labs, catalog #PBL01), assay PBS (Dulbecco's phosphate-buffered saline, +Mg, +Ca; Caisson Labs, catalog #PBL02) and Versene (0.02% EDTA disodium salt solution in PBS without calcium or magnesium; Caisson Labs, catalog #EDL01) were pre-warmed to 37° C. Cells expressing beta-adrenergic receptor were washed in washing PBS to remove growth medium and then released from the surface by incubating with Versene for 5-10 minutes at 37° C. Cells were harvested using assay PBS, counted manually by hemocytometer or by an automated cell counter, pelleted by centrifugation (200×g, 5 minutes) and resuspended in 37° C. 1× stimulation buffer to a final density of 1.5×10^6 cells/mL. 5 μL of the suspended cell solution (7500 cell total) were added to all wells of the 384 well assay plate, the assay plate was covered with an Axygen® plate seal (Corning PCR-SP) and incubated in a humidified 37° C. environment supplemented with 5% CO2 for 30 minutes.
(§4) HTRF reagent addition, reading and data analysis. After 30 minutes of cell stimulation with test compound, the assay plates were centrifuged at 500×g for 10 seconds, and incubation was stopped with the addition of 5 μL cAMP-D2 acceptor, diluted 1:21 in detection and lysis buffer 2 (Cisbio 62CL2FDF) was added to all cells. Subsequently, 5 μL Anti-cAMP-Eu Donor, diluted 1:21 in detection and lysis buffer 2, was added to cells. Plates were sealed and reactions gently ‘vortexed’ at 900 rpm on a Heidolph Titramax 1000 for at least 30 minutes at room temperature. Plates were centrifuged again at 500×g for 10 seconds, and HTRF was measured using a Tecan Spark plate reader at 50 flashes per well. […] Potency estimates (EC50) were derived from the four-parameter nonlinear regression of the concentration-effect curve and an estimate of relative efficacy was determined by comparing the magnitude of the test compound HTRF signal window (min−max dose) with the signal window of the full agonist control, isoproterenol.

β2 adrenergic receptor = β2 adrenergic receptor (Homo sapiens (Human), UniProt P07550); experiment: cAMP Gs dynamic HTRF assay, β2 expressing CHO cells; format: cell-based; details: B2-AR
β2 adrenergic receptor, sequence (P07550 whole entry, species assumed): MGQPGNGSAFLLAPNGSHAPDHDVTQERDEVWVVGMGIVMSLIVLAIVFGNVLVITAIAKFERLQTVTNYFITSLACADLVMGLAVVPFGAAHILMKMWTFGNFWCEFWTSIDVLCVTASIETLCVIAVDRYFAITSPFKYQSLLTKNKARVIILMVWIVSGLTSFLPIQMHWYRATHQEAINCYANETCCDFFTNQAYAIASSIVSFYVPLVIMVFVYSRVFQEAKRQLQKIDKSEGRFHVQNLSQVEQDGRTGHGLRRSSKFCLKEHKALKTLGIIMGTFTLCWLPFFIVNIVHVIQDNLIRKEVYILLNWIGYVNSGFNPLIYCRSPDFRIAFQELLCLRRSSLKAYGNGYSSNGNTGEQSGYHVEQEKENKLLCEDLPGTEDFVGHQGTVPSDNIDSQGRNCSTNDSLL
Description: as §1, §2, §3, §4

[1] = CHO-K1 (HitHunter), read-out: Average pEC50 [Receptor subtype: B1-AR, Cell type: CHO-K1 (HitHunter)] (converted)
[2] = CHO-K1 (HitHunter), read-out: Average pEC50 [Receptor subtype: B2-AR, Cell type: CHO-K1 (HitHunter)] (converted)
[3] = CHO-K cells, read-out: Average EC50 [Receptor subtype: B1-AR, Cell type: CHO-K]
[4] = CHO-K cells, read-out: Average EC50 [Receptor subtype: B2-AR, Cell type: CHO-K]

β1-adrenergic receptor, sequence (P08588 whole entry, species assumed): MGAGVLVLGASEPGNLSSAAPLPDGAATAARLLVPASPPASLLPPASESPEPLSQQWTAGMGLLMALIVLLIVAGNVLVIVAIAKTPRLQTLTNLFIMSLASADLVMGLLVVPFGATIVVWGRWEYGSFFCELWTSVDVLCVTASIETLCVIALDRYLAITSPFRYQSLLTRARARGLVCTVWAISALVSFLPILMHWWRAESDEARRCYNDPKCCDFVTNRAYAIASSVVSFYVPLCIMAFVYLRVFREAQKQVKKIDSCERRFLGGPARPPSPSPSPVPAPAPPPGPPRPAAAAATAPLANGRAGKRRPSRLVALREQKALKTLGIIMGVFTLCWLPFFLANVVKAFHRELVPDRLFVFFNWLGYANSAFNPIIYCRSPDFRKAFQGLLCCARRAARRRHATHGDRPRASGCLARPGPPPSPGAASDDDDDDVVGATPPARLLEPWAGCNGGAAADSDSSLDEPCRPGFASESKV

**Q.** How did the EC50 (β1-adrenergic receptor; [1]) turn out when `CNCc1cccc([C@@H](O)CNC(C)(C)C)n1` [Compound 03-252] was run?
**A.** > 1000 nM

**Q.** What about the EC50 (β2 adrenergic receptor; [2]) of the same molecule?
**A.** > 1000 nM

**Q.** Which results are given for `CC(C)(C)NC[C@H](O)c1cccc(NCC(F)(F)F)n1` [Compound 03-266]?
**A.** EC50 (β1-adrenergic receptor; [1]): < 10 nM; EC50 (β2 adrenergic receptor; [2]): < 10 nM

**Q.** Which EC50 (β1-adrenergic receptor; [1]) does the source give for `CC(C)c1cccc([C@H](O)CNC(C)(C)C)n1` [Compound 03-176] here?
**A.** > 1000 nM

**Q.** What about the EC50 (β1-adrenergic receptor; [3]) of the same molecule?
**A.** > 1000 nM

**Q.** What about the EC50 (β2 adrenergic receptor; [2]) of the same molecule?
**A.** 100 to 1000 nM

**Q.** And the EC50 (β2 adrenergic receptor; [4])?
**A.** 100 to 1000 nM

**Q.** How did the “Average pEC50 [Receptor subtype: B1-AR; Cell type: CHO-K1 (HitHunter)]” value (shortened to “Average pEC50”) (β1-adrenergic receptor; CHO-K1 (HitHunter)) turn out when `CC(C)(C)NC[C@@H](O)c1cccc(-n2cccc2)n1` [Compound 03-124] was run?
**A.** C (C = <7-6)

**Q.** And the EC50 (β1-adrenergic receptor; [3])?
**A.** 100 to 1000 nM

**Q.** What about the EC50 (β2 adrenergic receptor; [2]) of the same molecule?
**A.** 10 to 100 nM

**Q.** What about the EC50 (β2 adrenergic receptor; [4]) of the same molecule?
**A.** 10 to 100 nM

**Q.** `CC(C)(C)NC[C@H](O)c1cccc(-c2cccc(F)c2)n1` [Compound 03-131] was tested. Which “Average pEC50” value (β1-adrenergic receptor; CHO-K1 (HitHunter)) did it give?
**A.** B (B = 8-7)

**Q.** What about the EC50 (β1-adrenergic receptor; [3]) of the same molecule?
**A.** 10 to 100 nM

**Q.** And the EC50 (β2 adrenergic receptor; [2])?
**A.** < 10 nM

**Q.** What about the EC50 (β2 adrenergic receptor; [4]) of the same molecule?
**A.** < 10 nM

**Q.** With `O[C@H](CNC1CCC1)c1cccc(C(F)(F)F)n1` [Compound 03-34] as the molecule, how does the “Average pEC50” value (β1-adrenergic receptor; CHO-K1 (HitHunter)) read?
**A.** D (D < 6)

**Q.** What about the EC50 (β1-adrenergic receptor; [3]) of the same molecule?
**A.** > 1000 nM

**Q.** What about the EC50 (β2 adrenergic receptor; [2]) of the same molecule?
**A.** > 1000 nM

**Q.** And the EC50 (β2 adrenergic receptor; [4])?
**A.** > 1000 nM

**Q.** Which EC50 (β1-adrenergic receptor; [1]) does the source give for `COc1ccc(C[C@@H](C)NC[C@H](O)c2cccc(C3CCCC3)n2)cc1` [Compound 03-265] here?
**A.** 10 to 100 nM

**Q.** What about the EC50 (β2 adrenergic receptor; [2]) of the same molecule?
**A.** < 10 nM

**Q.** How did the EC50 (β1-adrenergic receptor; [1]) turn out when `CNC(=O)c1cccc([C@@H](O)CNC(C)(C)C)n1` [Compound 03-85] was run?
**A.** > 1000 nM

**Q.** And the EC50 (β2 adrenergic receptor; [2])?
**A.** 100 to 1000 nM

**Q.** How did the EC50 (β1-adrenergic receptor; [1]) turn out when `COc1ccc(CC(C)(C)NC[C@@H](O)c2cccc(C(F)(F)F)n2)cc1` [Compound 03-183] was run?
**A.** > 1000 nM

**Q.** And the EC50 (β1-adrenergic receptor; [3])?
**A.** > 1000 nM

**Q.** And the EC50 (β2 adrenergic receptor; [2])?
**A.** 100 to 1000 nM

**Q.** And the EC50 (β2 adrenergic receptor; [4])?
**A.** 100 to 1000 nM

**Q.** Which EC50 (β1-adrenergic receptor; [1]) does the source give for `CC(C)(C)NC[C@H](O)c1cccnc1-n1nccn1` [Compound 03-74] here?
**A.** > 1000 nM

**Q.** And the EC50 (β2 adrenergic receptor; [2])?
**A.** > 1000 nM

**Q.** `CC(C)(C)NC[C@H](O)c1cccc(N2CCCCC2)n1` [Compound 03-137] was tested. Which EC50 (β1-adrenergic receptor; [1]) did it give?
**A.** 100 to 1000 nM

**Q.** What about the EC50 (β1-adrenergic receptor; [3]) of the same molecule?
**A.** 100 to 1000 nM

**Q.** And the EC50 (β2 adrenergic receptor; [2])?
**A.** < 10 nM

**Q.** And the EC50 (β2 adrenergic receptor; [4])?
**A.** < 10 nM

**Q.** What does the source list for `CC(C)(C)NC[C@H](O)c1cccc(NC2CC(F)(F)C2)n1` [Compound 03-263]?
**A.** EC50 (β1-adrenergic receptor; [1]): 10 to 100 nM; EC50 (β2 adrenergic receptor; [2]): < 10 nM

**Q.** For `Cc1ccc([C@H](O)CNC(C)(C)C)nc1` [Compound 03-128], which EC50 (β1-adrenergic receptor; [1]) is on record?
**A.** > 1000 nM

**Q.** And the EC50 (β1-adrenergic receptor; [3])?
**A.** > 1000 nM

**Q.** And the EC50 (β2 adrenergic receptor; [2])?
**A.** > 1000 nM

**Q.** And the EC50 (β2 adrenergic receptor; [4])?
**A.** > 1000 nM

**Q.** `CC(C)(COc1ccccc1)NC[C@@H](O)c1cccc(C(F)(F)F)n1` [Compound 03-185] was tested. Which “Average pEC50” value (β1-adrenergic receptor; CHO-K1 (HitHunter)) did it give?
**A.** D (D < 6)

**Q.** And the EC50 (β1-adrenergic receptor; [3])?
**A.** > 1000 nM

**Q.** What about the EC50 (β2 adrenergic receptor; [2]) of the same molecule?
**A.** > 1000 nM

**Q.** And the EC50 (β2 adrenergic receptor; [4])?
**A.** > 1000 nM

**Q.** Which EC50 (β1-adrenergic receptor; [1]) does the source give for `Cc1ncc([C@@H](O)CNC(C)(C)C)c(C)n1` [Compound 03-261] here?
**A.** > 1000 nM

**Q.** And the EC50 (β2 adrenergic receptor; [2])?
**A.** 100 to 1000 nM

**Q.** Which results are given for `CC(C)(C)NC[C@@H](O)c1nc(C(F)(F)F)cc2ccccc12` [Compound 03-172]?
**A.** EC50 (β1-adrenergic receptor; [3]): > 1000 nM; EC50 (β2 adrenergic receptor; [4]): > 1000 nM

**Q.** How did the EC50 (β1-adrenergic receptor; [1]) turn out when `CC(C)(C)NC[C@H](O)c1cccnc1-c1c[nH]nn1` [Compound 03-76] was run?
**A.** 100 to 1000 nM

**Q.** And the EC50 (β2 adrenergic receptor; [2])?
**A.** 100 to 1000 nM

**Q.** How did the EC50 (β1-adrenergic receptor; [1]) turn out when `CC(C)(C)NC[C@@H](O)c1cccc(OC(F)(F)F)n1` [Compound 03-186] was run?
**A.** > 1000 nM

**Q.** What about the EC50 (β1-adrenergic receptor; [3]) of the same molecule?
**A.** > 1000 nM

**Q.** What about the EC50 (β2 adrenergic receptor; [2]) of the same molecule?
**A.** 100 to 1000 nM

**Q.** What about the EC50 (β2 adrenergic receptor; [4]) of the same molecule?
**A.** 100 to 1000 nM

**Q.** How did the EC50 (β1-adrenergic receptor; [1]) turn out when `CC(C)(C)NC[C@@H](O)c1ccc(C(F)(F)F)cn1` [Compound 03-125] was run?
**A.** 100 to 1000 nM

**Q.** And the EC50 (β1-adrenergic receptor; [3])?
**A.** 100 to 1000 nM

**Q.** What about the EC50 (β2 adrenergic receptor; [2]) of the same molecule?
**A.** 100 to 1000 nM

**Q.** And the EC50 (β2 adrenergic receptor; [4])?
**A.** 100 to 1000 nM

**Q.** For `CNCc1cccc([C@@H](O)CN[C@H](C)Cc2ccc(OC)cc2)n1` [Compound 03-254], which EC50 (β1-adrenergic receptor; [1]) is on record?
**A.** > 1000 nM

**Q.** And the EC50 (β2 adrenergic receptor; [2])?
**A.** 100 to 1000 nM

**Q.** `CC(C)(C)NC[C@@H](O)c1cccc(OC(C)(C)C)n1` [Compound 03-273] was tested. Which EC50 (β1-adrenergic receptor; [1]) did it give?
**A.** > 1000 nM

**Q.** And the EC50 (β2 adrenergic receptor; [2])?
**A.** 100 to 1000 nM

**Q.** How did the EC50 (β1-adrenergic receptor; [1]) turn out when `CC(C)(C)NC[C@H](O)c1cccc(-c2ccncc2)n1` [Compound 03-221] was run?
**A.** 10 to 100 nM

**Q.** What about the EC50 (β2 adrenergic receptor; [2]) of the same molecule?
**A.** < 10 nM

**Q.** For `COc1ccc(C[C@@H](C)NC[C@H](O)c2cc(F)cnc2C)cc1` [Compound 03-260], which EC50 (β1-adrenergic receptor; Average pEC50 [Receptor subtype: B1-AR, Cell type: CHO-K1 (HitHunter)], CHO-K1 (HitHunter)) is on record?
**A.** > 1000 nM

**Q.** And the EC50 (β2 adrenergic receptor; Average pEC50 [Receptor subtype: B2-AR, Cell type: CHO-K1 (HitHunter)], CHO-K1 (HitHunter))?
**A.** < 10 nM
